Patent US8637038B2, “Methods for inhibiting allograft rejection” (Rigel Pharmaceuticals, Inc., priority 2011, dated 2014)

Assays:
Format in all cases: in vivo, rat
[1] = tested on: Lew recipients of heterotopic BN heart transplants; assay: Five-day heart allograft study: H+E histology, ISHLT rejection classification; conditions: HD (Compound I 60 mg/kg BID, Compound III 20 mg/kg BID, Tac 4 mg/kg QD); five days after transplantation
From the text: Male Brown Norway (BN) and Lewis (Lew) rats weighing 350 g were purchased from Harlan (Indianapolis, Ind.) and were housed under conventional conditions. All animals were fed standard rat chow and water ad libitum and received humane care in compliance with the Principles of Laboratory Animal Care formulated by the National Society for Medical Research and the Guide for the care and Use of Laboratory Animals published by the National Institutes of Health (National Institutes of Health publication No. 85-23, revised 1985). Allogeneic (BN-to-Lew) and syngeneic (Lew-to-Lew) heterotopic heart transplantations were performed as described previously (Ono et al., J. Thorac. Cardiovasc. Surg. 57:225-229, 1969). In brief, rats were anaesthetized using 2% isoflurane. The donor received an intravenous bolus of 500 I.U. heparin. Cardiac arrest was achieved using 20 ml Bretschneider solution (Custodiol, Dr. F. Koehler Chemie, Bensheim, Germany). […] Heart-beating score was assessed directly after transplantation for each animal from score 0 (no palpable contraction) to 4 (strong and regular contraction). Only animals with beating scores of 4 were included into the study. Compound I and Compound III were provided by Rigel (South San Francisco, Calif.) and Tacrolimus was provided by Astellas (Munich, Germany). All drugs were administrated orally each in two different concentrations: Compound I LD (15 mg/kg BID; n=6) and HD (60 mg/kg BID; n=6); […] Administration of all drugs was performed every day at the same time points. Tacrolimus was applied only once a day (QD) every 24 hours. During administration of Compound I (BID) and Compound III (BID) a 12 hour pause was kept in between each drug application. Lew recipients of heterotopic BN heart transplants were randomly assigned to their group. […] An untreated syngeneic transplant group Lew-Lew was generated as control. Grafts were recovered five days after transplantation and fixed in 4% paraformaldehyde (Science Services, Munich, Germany), dehydrated and embedded in paraffin. […] Waldeck, Carl Roth GmbH, Munster, Germany) and examined by standard light microscopy. The extent of acute cardiac graft rejection in H+E staining was examined by an experienced pathologist according to the 2004 ISHLT working formulation (Stewart et al., J. Heart Lung Transplant. 24:1710-1720, 2005).

[2] = tested on: Lew recipients of heterotopic BN heart transplants; assay: Five-day heart allograft study: ELISPOT (IFN-γ, IL-4, IL-17) of recipient splenocytes; conditions: LD groups (Compound I 15 mg/kg BID, Compound III 5 mg/kg BID, Tac 1 mg/kg QD); five days
Description: (§1) Compound I and Compound III were provided by Rigel (South San Francisco, Calif.) and Tacrolimus was provided by Astellas (Munich, Germany). All drugs were administrated orally each in two different concentrations: Compound I LD (15 mg/kg BID; n=6) and HD (60 mg/kg BID; n=6); Compound III LD (5 mg/kg BID; n=6) and HD (20 mg/kg BID; n=6); Tac LD (1 mg/kg QD; n=6) and HD (4 mg/kg QD; n=6). Administration of all drugs was performed every day at the same time points. Tacrolimus was applied only once a day (QD) every 24 hours. During administration of Compound I (BID) and Compound III (BID) a 12 hour pause was kept in between each drug application.
(§2) Lew recipients of heterotopic BN heart transplants were randomly assigned to their group. Animals were either left untreated (groups 1 and 2; see Table 1,5-day study) or received their group specific medication (groups 3-8; see Table 1,5-day study) by oral application. An untreated syngeneic transplant group Lew-Lew was generated as control.
Lymphocytes were isolated from freshly harvested spleens. ELISPOT assays with 1×10^7/ml mitomycin-inhibited BN splenocytes and 1×10^6/ml Lew splenocytes were performed according to the manufacturer's protocol (BD Biosciences). 96-well plates were coated with IFN-γ, IL-17, and IL-4 to assess T helper cell (Th)1-, Th17-, and Th2-responses independently. All assays were performed in quadruplicates. Spots were automatically enumerated using an ELISPOT plate reader (CTL, Cincinnati, Ohio) for scanning and analyzing.

[3] = tested on: Lew recipients of heterotopic BN heart transplants; assay: Five-day heart allograft study: donor-specific IgM antibodies by flow cytometry; conditions: LD and HD groups; five days; p<0.001
Description: as §1, §2
Donor splenocytes were isolated and erythrocytes were lysed using the ACK buffer (Lonza, Walkersville, Md.). Sera from recipient rats were decomplemented and equal amounts of sera and splenocyte suspensions (5×10^6 cells/ml) were incubated for 30 minutes at room temperature. IgM antibodies were stained by incubation of the cells with a conjugated mouse antibody specific for the Fc-portion of rat IgM (Monoclonal Anti-rat IGM, Clone RTM-32, Sigma) followed by incubation with a 488-conjugated secondary antibody (Invitrogen). Cells were washed with PBS, fixed with 2% paraformaldehyde (Science Services), and analyzed on a FACSCalibur™ system (BD Biosciences). Fluorescence data were expressed as mean fluorescence intensity (MFI) using Flowjo software (Tree Star, Inc., Ashland, Oreg.).

[4] = tested on: BN-to-Lew heterotopic heart transplantations; assay: Graft survival study after 10-day treatment, with combination index; conditions: no medication 7±0 days
From the text: Male Brown Norway (BN) and Lewis (Lew) rats weighing 350 g were purchased from Harlan (Indianapolis, Ind.) and were housed under conventional conditions. All animals were fed standard rat chow and water ad libitum and received humane care in compliance with the Principles of Laboratory Animal Care formulated by the National Society for Medical Research and the Guide for the care and Use of Laboratory Animals published by the National Institutes of Health (National Institutes of Health publication No. 85-23, revised 1985). Allogeneic (BN-to-Lew) and syngeneic (Lew-to-Lew) heterotopic heart transplantations were performed as described previously (Ono et al., J. Thorac. Cardiovasc. Surg. 57:225-229, 1969). In brief, rats were anaesthetized using 2% isoflurane. The donor received an intravenous bolus of 500 I.U. heparin. Cardiac arrest was achieved using 20 ml Bretschneider solution (Custodiol, Dr. F. Koehler Chemie, Bensheim, Germany). […] Heart-beating score was assessed directly after transplantation for each animal from score 0 (no palpable contraction) to 4 (strong and regular contraction). Only animals with beating scores of 4 were included into the study.
as §1
BN-to-Lew heterotopic heart transplantations were performed. Recipient animals were treated for 10 days according to Table 1 (10 day survival study group) and graft survival was monitored by daily palpation of the beating donor heart through the abdominal wall. Scoring was assessed according to heart-beating score of 0 to 4. The time of rejection was defined as the last day of palpable cardiac contractions and graft rejection was confirmed by laparotomy.
The median-effect principle of Chou (in Synergism and Antagonism in Chemotherapy, Chou and Rideout, eds, pp. 61-102, Academic Press, 1991) is based on the premise that the effect of each agent is related to its dose and, therefore, can be calculated using the following equation: (fa/fu)=(D/Dm)m, where fa and fu represent the fractions of the system that are affected (% inhibition or rather days of survival beyond controls) and unaffected (1−fa), respectively, by the drug at dose D. Full protection (fa=1) is defined as at least a 28-day survival of allografts. Dm is the dose required for 50% inhibition (ED50), the median effect (m) is a coefficient that describes the sigmoidicy of the dose-effect curve. The interaction between two drugs is assessed by the combination index (CI) equation for the doses to achieve x % inhibition:
[formula] for the mutually nonexclusive case, where each drug has a different mode of action. A computer software program was used to determine the dose-effect parameters (Dm, m, and r), and the CI values (CalcuSyn, Biosoft, Cambridge, United Kingdom).
Graft survival was monitored by daily palpation of the beating donor heart through the abdominal wall and treatment of animals was stopped after 10 days.

With `C=CC[C@@H]1/C=C(\C)C[C@H](C)C[C@H](OC)[C@H]2O[C@@](O)(C(=O)C(=O)N3CCCC[C@H]3C(=O)O[C@H](/C(C)=C/[C@@H]3CC[C@@H](O)[C@H](OC)C3)[C@H](C)[C@@H](O)CC1=O)[C@H](C)C[C@@H]2OC` [Tac, Tacrolimus, reference compound] the “hearts with ISHLT score of 1” value [1] was 67%, the “hearts with ISHLT score of 2” value [1] was 33% and the “IFN-γ spot frequency (ELISPOT) compared to no medication group” value [2] was “no significant reduction”. The “donor-specific IgM antibodies (DSA) vs. no medication” value [3] was “significant suppression”, the “graft survival, mean” value ([4]; HD (Compound I 60 mg/kg BID, Compound III 20 mg/kg BID, Tac 4 mg/kg QD) for 10 days) was 20 ± 3 days and the “graft survival, mean” value ([4]; LD (Compound I 15 mg/kg BID, Compound III 5 mg/kg BID, Tac 1 mg/kg QD) for 10 days) was 13 ± 2 days.
